# Assay results as given in patent publication US9624167B2, “N-(4-hydroxy-4-methyl-cyclohexyl)-4-phenyl-benzenesulfonamides and N-(4-hydroxy-4-methyl-cyclohexyl)-4-(2-pyridyl)benzenesulfonamides and their therapeutic use” (PIMCO 2664 LIMITED, priority 2013, dated 2017).
# Read-outs that look alike come from different tables or passages of the source.
# How the values were obtained:
# [1] = Aqueous (FaSSIF) solubility; type: physicochemical; settings: fasted state simulated intestinal fluid (FaSSIF); for solubility: pH 6.8, two replicates, read-out: Solubility (2)
# Method: Solubility was measured by equilibration of the compound in fasted state simulated intestinal fluid (FaSSIF) and quantified by high-performance liquid chromatography (HPLC).
# Aqueous solubility was measured by equilibration of compounds with fasted state simulated intestinal fluid (FaSSIF) and quantified spectrophotometrically.
# FaSSIF was prepared as described below:
# Preparation of blank FaSSIF: 0.21 g of sodium hydroxide (NaOH) pellets, 1.97 g of dihydrogen sodium phosphate (NaH2PO4.2H2O) and 3.09 g of sodium chloride (NaCl) were dissolved in 400 mL of deionised water. […]
# Preparation of FaSSIF: 0.056 g of SIF Powder (containing sodium taurocholate and lecithin) (Phares AG) was dissolved in 25 mL of blank FaSSIF and stirred until the powder was completely dissolved. The solution was allowed to stand for 2 hours during which it became opalescent; it was used within 24 hours. The final solution composition was characterised as follows: • Sodium taurocholate: 3 mM • Lecithin: 0.75 mM • Osmolarity: 270±10 mOsmol • pH: 6.5
# The optical density was measured at the end of the incubation period for test compounds and a reference used to determine solubility. In brief, two samples were prepared for each determination: a reference sample consisting of a stock solution of test compound in DMSO diluted in system solution (a phosphate free, low absorption buffer) and propanol; and a test sample (prepared in triplicate) consisting of 0.5 mL FaSSIF spiked with test compound at 0.2 mM. Each sample was incubated at room temperature for 16 hours with constant shaking at 250 rpm. At the end of the incubation period, 0.3 mL of each sample was filtered through a pION filter plate (PION, Woburn Mass.), diluted 1:1 with propanol and scanned using UV spectrophotometry at λmax ([…]) using a Spectra Max Plus—Version 2.1000 (Molecular Devices, Sunnyvale, Calif.), with μSOL Explorer solubility determination software (pION, Woburn, Mass.).
# FaSSIF solubility was calculated using the following formula:
# [formula] wherein: • “OD” is the optical density; • “Cr” is the concentration of the reference (33.4 μM); and • “molecular weight” is for the test compound (e.g., 381.44 for ABD735).
# hERG = biological target: T1, hERG (Homo sapiens, UniProt Q12809); assay: hERG Ion Channel Assay (Q-patch, hERG-CHO cells); type: cell-based; settings: human, CHO cells stably transfected with hERG (hERG-CHO), pH 7.4, 30 μM, hERG tail current
# T1 construct: expressed in transfected cells; host or cells: Chinese Hamster Ovary cells (hERG-CHO), stably transfected
# T1 sequence (Q12809 whole entry): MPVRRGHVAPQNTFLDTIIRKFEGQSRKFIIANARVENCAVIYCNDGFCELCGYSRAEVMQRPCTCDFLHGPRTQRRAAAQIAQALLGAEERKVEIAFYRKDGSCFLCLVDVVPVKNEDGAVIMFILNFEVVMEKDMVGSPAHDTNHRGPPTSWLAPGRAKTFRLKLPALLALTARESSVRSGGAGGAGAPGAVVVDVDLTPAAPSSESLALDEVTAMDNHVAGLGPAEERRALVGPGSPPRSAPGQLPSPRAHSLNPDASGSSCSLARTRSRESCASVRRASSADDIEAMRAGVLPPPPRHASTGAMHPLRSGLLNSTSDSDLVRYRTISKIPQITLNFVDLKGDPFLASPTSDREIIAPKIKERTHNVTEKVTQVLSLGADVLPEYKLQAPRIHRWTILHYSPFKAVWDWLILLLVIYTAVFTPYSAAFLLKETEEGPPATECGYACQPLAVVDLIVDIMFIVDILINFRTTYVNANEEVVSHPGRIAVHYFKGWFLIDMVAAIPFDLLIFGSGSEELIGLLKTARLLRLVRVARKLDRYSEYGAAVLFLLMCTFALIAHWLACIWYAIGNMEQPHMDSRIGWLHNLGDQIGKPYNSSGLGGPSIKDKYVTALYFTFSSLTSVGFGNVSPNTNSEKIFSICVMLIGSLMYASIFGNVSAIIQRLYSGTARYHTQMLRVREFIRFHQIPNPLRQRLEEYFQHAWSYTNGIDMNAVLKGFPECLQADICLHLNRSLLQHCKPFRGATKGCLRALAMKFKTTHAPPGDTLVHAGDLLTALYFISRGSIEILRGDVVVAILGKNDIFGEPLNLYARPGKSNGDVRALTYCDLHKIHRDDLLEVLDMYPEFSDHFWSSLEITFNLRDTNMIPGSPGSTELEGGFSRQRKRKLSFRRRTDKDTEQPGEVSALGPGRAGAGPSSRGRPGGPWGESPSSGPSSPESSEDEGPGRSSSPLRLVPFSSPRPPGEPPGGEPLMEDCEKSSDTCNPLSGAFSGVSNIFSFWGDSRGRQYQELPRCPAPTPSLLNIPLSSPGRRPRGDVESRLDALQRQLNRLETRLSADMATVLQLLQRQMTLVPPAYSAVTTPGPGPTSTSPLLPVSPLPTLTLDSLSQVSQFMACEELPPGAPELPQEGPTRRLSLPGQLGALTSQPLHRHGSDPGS
# Method: (§1) The activity of the compounds against the hERG ion channel was tested. The assay was conducted using the automated path-clamp, Q-patch method using stably transfected Chinese Hamster Ovary cells (hERG-CHO). hERG-CHO cells were cultured in F-12 Kaighn's Nutrient Mixture medium (Invitrogen)+10% FBS at 37° C. for 1-3 days. Cells were kept at 30° C. for 24 to 48 hours prior to patch clamping in order to increase the hERG current amplitude. Subsequently, the cells were harvested by trypsinisation, and kept in Serum Free Medium (SFM) in the Q-patch cell preparation state for up to 6 hours at room temperature before being washed and re-suspended in extracellular solution and applied to the patch clamp sites for data recording.
# (§2) Patch-clamp voltage protocol: After whole cell configuration was achieved, the cell was held at −80 mV. A 50 millisecond pulse to −40 mV was delivered to measure the leaking current, which was subtracted from the tail current on-line. Then the cell was depolarized to +20 mV for 2 seconds, followed by a one second pulse to −40 mV to reveal hERG tail current. This paradigm was delivered once every 5 seconds to monitor the current amplitude.
# (§3) Extracellular solution: 137 mM NaCl, 4 mM KCl, 1.8 mM CaCl2, 1 mM MgCl2, 10 mM D(+)-glucose, 10 mM HePES buffer (pH adjusted to 7.4 with NaOH).
# (§4) After the whole cell configuration was achieved, the extracellular solution (control) was applied first and the cell was stabilized for 2 minutes in extracellular solution. The test compound was then applied from low concentrations to high concentrations cumulatively. The cell was incubated with each test concentration for 5 minutes. During each incubation, the cell was repetitively stimulated using the voltage protocol described above, and the tail current amplitude was continuously monitored.
# (§5) • (1) Peak tail current >100 pA in control. • (2) Initial run-down <30% and the run-down stops before first application of the test compound. • (3) Leak currents <50% of the control peak tail currents at any time. • (4) rs<20 MΩ throughout the experiment.
# (§6) The degree of inhibition (%) was obtained by measuring the tail current amplitude, induced by a one second test pulse to −40 mV after a two second pulse to +20 mV, before and after incubation with the test compound. The difference in current was normalized to control and multiplied by 100 in order to obtain the percent inhibition.
# (§7) Concentration (log) response curves were fitted to a logistic equation (three parameters assuming complete block of the current at very high test compound concentrations) to generate estimates of the 50% inhibitory concentration (IC50). The concentration-response relationship of each compound was constructed from the percentage reductions of current amplitude by sequential concentrations.
# hERG ion channel = biological target: T2, hERG ion channel (Homo sapiens, UniProt Q12809); assay: hERG Ion Channel Assay (Q-patch, hERG-CHO cells); type: cell-based; settings: hERG tail current, hERG-CHO cells, Q-patch; read-out: IC50 (1)
# T2 construct: expressed in transfected cells; host or cells: Chinese Hamster Ovary cells (hERG-CHO), stably transfected
# T2 sequence (Q12809 whole entry): as above
# Method: as §1, §2, §3, §4, §5, §6, §7
# J774 macrophages [2] = assay: Resazurin Macrophage J774 Viability Assay; type: cell-based; settings: Mus musculus, 6 point concentration range 10 μM to 10 nM, n = 3 replicates, mean of 2 independent experiments, 72 hour incubation, read-out: IC50 (1)
# Method: Potency was assessed using a viability assay based on the survival of the J774 macrophage cell line. Macrophages are closely related to osteoclasts and have been used previously as a model system for osteoclast survival (see, e.g., Luckman et al., 1998, “Heterocycle-containing bisphosphonates cause apoptosis and inhibit bone resorption by preventing protein prenylation: evidence from structure-activity relationships in J774 macrophages,” J. Bone Miner. Res., Vol. 13, pp. 1668-1678). The model is indicative both of effects on bone protection in diseases such as osteoporosis, osteoarthritis and rheumatoid arthritis, and of effects on inflammation since, like osteoclasts, J774 macrophages are dependent for survival on continued NFκB activation.
# In vitro potency of test compounds was determined by incubation with J774 macrophages and subsequent determination of cell viability using resazurin.
# Resazurin is a redox dye commonly used as an indicator of viability in cultured cells (see, e.g., Anoopkumar-Dukie, 2005, British Journal of Radiology, Vol. 78, pp. 945-947). It is non-toxic to cells and stable in culture medium, allowing continuous measurement of cell proliferation in vitro as either a kinetic or endpoint assay. The assay is based on the ability of viable, metabolically-active cells to reduce resazurin (which is blue and non-fluorescent) to resorufin and dihydroresorufin (which are red and fluorescent) using electrons from reducing species, such as nicotinamide adenine dinucleotide (NADPH) and flavin adenine dinucleotide (FADH). This transformation, from oxidised form to reduced form, can be measured either colorimetrically or fluorometrically. Insults that impair cell viability and proliferation also affects the capacity of cells to reduce resazurin, and the rate of dye reduction is directly proportional to the number of viable cells present.
# For fluorescence measurements, 530-560 nm excitation and 590 nm emission wavelengths are typically used. For colorimetric measurements, absorbance at 570 nm (reduced form) and 600 nm (oxidised form) is typically measured. A simple calculation is performed to determine the relative quantities of the two species: a high ratio of resorufin (the reduced form) to resazurin (the oxidised form) is an indicator that cells are proliferating and viable. A low ratio indicates cells that are quiescent or non-viable.
# J774 cells were plated at 10^4 cells per well in 100 μL αMEM (α Modified Eagle Medium) in 96-well plates and allowed to adhere overnight. The following day, test compounds were prepared as 100 mM solutions in DMSO. These stock solutions were diluted in DMSO and then diluted 1000× in culture medium (αMEM) before being added directly to the wells so as to give the desired final compound concentration. After a 72 hour incubation at 37° C./5% CO2, resazurin (Alamar Blue, Biosource International) was added to each well (1:10 v/v, 10 μL). The plate was then incubated at 37° C. for 3 hours and fluorescence was measured at 590 nm, with a 25 nm bandwidth.
# The average results for each test compound were expressed as a percent (%) of the average control value reflecting cell viability. The average values across the concentrations tested were then plotted and the IC50 for was calculated by fitting the data to a 4-parameter IC50 equation using software from Grafit (Erithacus Software). Each experiment was repeated twice and the data are presented as the mean IC50 from both experiments.
# [3] = system: IL-6 release from LPS-stimulated Thp1 macrophages; assay: Thp1 Macrophage IL-6 Release Assay; type: cell-based; settings: Homo sapiens, THP-1, 1.7 × 10^5 cells/well, 96-well plates, 3 days, 9 point curve, IL6 measured 18 hours after LPS, read-out: IC50 (2)
# Description: Anti-inflammatory effects were further characterised by assessing the production of interleukin-6 (IL-6) by human Thp-1 derived macrophages stimulated with a pro-inflammatory stimulus bacterial lipopolysaccharide (LPS). LPS acts with a cell-surface receptor, Toll-like receptor-4 to activate the NFκB and IRF signalling pathways to produce IL-6. The reduction of IL—in this stimulated assay is indicative of anti-inflammatory effects with utility in the treatment of conditions in which IL-6 production is aberrant.
# In vitro potency of test compounds in human cells was determined by incubation with Thp1 macrophages and subsequent stimulation with an inflammatory stimulus (bacterial lipopolysaccharide (LPS)) followed by measurement of cellular interleukin-6 (IL-6) release.
# Thp1 cells were plated at a concentration of 1×10^5 cells/well or 1.7×10^5 cells/well in 500 μL or 150 μL RPMI complete media containing 1% penicillin-streptomycin and 10% heat inactivated foetal bovine serum in 24-well plates or 96-well plates, respectively and allowed to adhere overnight. The following day, the cells were stimulated with phorbol myristic acid (PMA) at a final concentration of 100 nM (24-well plates) or 200 nM (96-well plates) to induce differentiation and maintained for up to 8 days with a medium change at 5 days if cells were cultured to 8 days. Test compounds were prepared as […] solutions in DMSO and then serially diluted in DMSO prior to dilution in culture medium.
# The diluted compounds were added to the cultures 1 hour prior to stimulation with 100 ng/mL LPS. Following a 16 or 18 hour incubation at 37° C./5% CO2, the cell culture medium was collected and assayed for human IL-6 levels using the human IL-6 duo-set ELISA kit (R&D Systems). The average results for each test compound (n=3) were expressed as a percent (%) of the average control value. The average values across the concentrations tested were then plotted and the IC50 for the inhibition of IL-6 was calculated by fitting the data to a 4-parameter IC50 equation using software from Grafit version 6.0.12 (Erithacus Software Ltd., by Dr Robin Leatherbarrow) or GraphPad Prism version 5.04 for Windows (GraphPad Software, La Jolla, Calif., USA, www.qraphpad.com). Each experiment was repeated twice and the data are presented as the mean IC50 from both experiments.
# J774 macrophages [4] = assay: Resazurin Macrophage J774 Viability Assay; type: cell-based; settings: Mus musculus, 12 point concentration range 10 μM to 0.5 nM, n = 4 replicates, mean of 3 independent experiments, 72 hour incubation, read-out: IC50 (2)
# [5] = Human Liver Microsomal Stability; type: in vitro ADME; settings: both sexes, pooled liver microsomes, pH 7.4, human liver microsomes 0.5 mg/mL protein, 1 μM compound, 6 time points 0-60 min, two replicates, read-out: T1/2 (2)
# Method: Metabolic stability was measured by determining the rate of disappearance of compound in the presence of human liver microsomal preparations, as quantified by liquid chromatography mass-spectrometry and […] mass-spectrometry (LC-MS/MS).
# Metabolic stability of test compounds was measured by determination of the rate of disappearance of the compound when incubated in the presence of human liver microsomes. Liver microsomes are prepared from the endoplasmic reticulum of hepatocytes and are the primary source of the most important enzymes (cytochrome P450s) involved in drug metabolism. Study of drug stability in the presence of liver microsomes is accepted as a valuable model permitting rapid prediction of in vivo drug stability.
# Human liver microsomes were obtained from a commercial source. Test compounds (1 μM) were incubated with pooled liver microsomes (male and female). Samples were incubated for a 60 minute period and removed at up to 6 time points and analysed by LC-MS/MS for the presence/amount of test compounds.
# Microsomes (final protein concentration 0.25 or 0.5 mg/mL), 0.1 M phosphate buffer pH 7.4, and test compound (final concentration 1 μM; diluted from 10 mM stock solution to give a final DMSO concentration of 0.1%) were incubated at 37° C. prior to the addition of Nicotinamide adenine dinucleotide phosphate (NADPH, final concentration 1 mM) to initiate the reaction. The final incubation volume was 100 μL. A control incubation was included for each compound tested, where 0.1 M phosphate buffer pH 7.4 was added instead of NADPH. […]
# Each compound was incubated for 0, 5, 15, 30, 45 or 60 minutes. The reactions were stopped by the addition of 100 μL ice-cold acetonitrile containing internal standard (0.001 mM glipizide) at the appropriate time points. The incubation plates were centrifuged at 4000 rpm for 15 minutes at 4° C. to precipitate the protein and 0.1 mL aliquots were analysed using LC-MS/MS, with the conditions shown in the following table.
# From a plot of the natural logarithm of the peak area ratio (i.e., the ratio of compound peak area:internal standard peak area) against time, the gradient of the line was determined.
"solubility at 16 h ([1]; kinetic from dmso stock, pH 6.5, three replicates, 16 hours, read-out: Solubility (1))",IC50 [3],solubility [1],half-life at 1 μM [5],SMILES,"inhibition at 5 min, 30 µM (hERG)",IC50 (hERG ion channel),IC50 (J774 macrophages [2]),IC50 (J774 macrophages [4])
30 µg/mL,–,–,–,"O=S(=O)(N[C@H]1CC[C@H](O)CC1)c1ccc(-c2ccc(F)cc2F)cc1 [ABD599, reference compound]",85%,4900 nM,190 nM,–
–,190 nM,110 µg/mL,4 h,"C[C@]1(O)CC[C@H](NS(=O)(=O)c2ccc(-c3ccc(C#N)cc3F)cc2)CC1 [HMC-C-06-A, 4′-Cyano-2′-fluoro-N-((1r,4r)-4-hydroxy-4-methylcyclohexyl)-[1,1′-biphenyl]-4-sulfonamide]",–,–,–,710 nM
–,1020 nM,190 µg/mL,2.05 h,"C[C@]1(O)CC[C@H](NS(=O)(=O)c2ccc(-c3ccc(F)cc3C#N)cc2)CC1 [HMC-C-05-A, 2′-Cyano-4′-fluoro-N-((1r,4r)-4-hydroxy-4-methylcyclohexyl)-[1,1′-biphenyl]-4-sulfonamide]",–,–,–,2460 nM
–,–,–,–,C[C@]1(O)CC[C@@H](NS(=O)(=O)c2ccc(-c3ncc(Cl)cc3Cl)c(F)c2)CC1 [HMC-N-04-B],60%,–,–,–
